From publication PMC2874095 (Journal of medicinal chemistry, 2010)
Positions count from the first letter of the chain named. Read-outs that look alike come from different tables or passages of the source.

Key:
Bcl-XL = Bcl-XL (Homo sapiens, UniProt Q07817); type: binding; conditions: FPA, incomplete titration curves
VacV-GFP = type: cell-based, vaccinia virus
Bcl-2 = Bcl-2 (Homo sapiens, UniProt P10415); type: binding; conditions: FPA, incomplete titration curves
N1L [1] = target: T1, N1L (Vaccinia virus, UniProt P17361); type: binding
T1 sequence (P17361 1-117): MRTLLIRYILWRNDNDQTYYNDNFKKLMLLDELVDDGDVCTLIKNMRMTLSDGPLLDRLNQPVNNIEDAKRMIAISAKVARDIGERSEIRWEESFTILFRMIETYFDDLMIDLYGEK

N1L [2] = target: T1, N1L; type: binding; remark: listed apart in the source
N1L I6K = target: T2, N1L I6K (Vaccinia virus, UniProt P17361, I6K); type: binding
T2 sequence (P17361 1-117 I6K): T1 sequence (P17361 1-117) with I6K

[3] = compound concentrations above 100 μM

Chain of Bcl-XL (Q07817 whole entry): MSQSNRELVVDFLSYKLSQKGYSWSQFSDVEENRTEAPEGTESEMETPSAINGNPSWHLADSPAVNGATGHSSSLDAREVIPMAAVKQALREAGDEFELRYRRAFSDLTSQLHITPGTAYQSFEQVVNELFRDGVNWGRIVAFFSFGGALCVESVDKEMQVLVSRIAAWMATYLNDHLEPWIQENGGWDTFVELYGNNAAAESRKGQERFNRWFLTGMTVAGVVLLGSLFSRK
Chain of Bcl-2 (P10415 whole entry): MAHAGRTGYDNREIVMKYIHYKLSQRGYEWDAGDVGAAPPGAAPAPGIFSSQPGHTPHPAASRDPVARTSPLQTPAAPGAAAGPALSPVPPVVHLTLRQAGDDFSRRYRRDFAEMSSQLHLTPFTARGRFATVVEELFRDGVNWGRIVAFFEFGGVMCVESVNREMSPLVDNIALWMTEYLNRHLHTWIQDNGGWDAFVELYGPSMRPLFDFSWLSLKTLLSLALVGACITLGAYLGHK

Structure (SMILES): COc1ccc2ccccc2c1-c1c(O)ccc2ccccc12 [Ligand 8]
- binding to Bcl-XL (in words) (Bcl-XL): cross-reactivity
- antiviral activity (in words) (VacV-GFP): poor antiviral
- binding to Bcl-2 (in words) (Bcl-2): cross-reactivity
- non-specific cytotoxicity (in words) (CV1 and HT1080 cells; absence of VacV-GFP, up to 150 μM): cytotoxicity in uninfected cells

Structure (SMILES): Oc1ccc(/C=C/c2cc(O)cc(O)c2)cc1 [Ligand 4, trans-Resveratrol]
- ΔH of N1L unfolding (N1L [1]): 10.3 kcal/mol
- N1L inhibition (in words) (N1L [2]): moderate N1L inhibitor
- Tm of N1L I6K (N1L I6K): 61.1 °C
- ΔH of N1L I6K unfolding (N1L I6K): 15.9 kcal/mol

Structure (SMILES): COc1cc(-c2ccc3cc(OC)c(OC)c(OC)c3c2)cc(OC)c1OC [Ligand 11]
- effect on N1L enthalpy of unfolding (in words) (N1L [1]): increase of enthalpy of unfolding
- effect on N1L melting temperature (in words) (N1L [1]): slight decrease of melting temperature
- ΔH of N1L unfolding (N1L [1]): 20.3 kcal/mol
- binding to Bcl-XL (in words) (Bcl-XL): poor ligand binding
- binding to Bcl-2 (in words) (Bcl-2): poor ligand binding
- non-specific cytotoxicity (in words) (CV1 and HT1080 cells; [3]): no significant non-specific cytotoxicity

Structure (SMILES): COc1cc(C(c2ccccc2)c2ccccc2)c2ccccc2c1O [Ligand 6]
- ΔH of N1L unfolding (N1L [1]): 8.7 kcal/mol

Structure (SMILES): Oc1cc(Cc2ccccc2)c(Cc2ccccc2)cc1O [Ligand 12]
- ΔH of N1L unfolding (N1L [1]): 11.2 kcal/mol

Structure (SMILES): Oc1cc(C(c2ccccc2)c2ccccc2)c2ccccc2c1O [Ligand 7]
- ΔH of N1L unfolding (N1L [1]): 12.3 kcal/mol
- binding to Bcl-XL (in words) (Bcl-XL): poor ligand binding
- binding to Bcl-2 (in words) (Bcl-2): poor ligand binding

Structure (SMILES): COc1ccc(CCc2cc(OC)c(O)c(OC)c2)cc1 [Ligand 3]
- ΔH of N1L unfolding (N1L [1]): 11.0 kcal/mol

Structure (SMILES): COc1ccc(C(C)c2cc(OC)c(OC)c(OC)c2)cc1 (centres unmarked) [Ligand 2]
- non-specific cytotoxicity (in words) (CV1 and HT1080 cells; [3]): no significant non-specific cytotoxicity

Structure (SMILES): Oc1ccc(/C=N/c2ccccc2/N=C/c2ccc(O)c(O)c2)cc1O [Ligand 9]
- ΔH of N1L unfolding (N1L [1]): 17.8 kcal/mol
- non-specific cytotoxicity (in words) (CV1 and HT1080 cells; [3]): no significant non-specific cytotoxicity
